Patent publication US8916551B2, “Heterocyclic compound and use thereof” (Takeda Pharmaceutical Company Limited, priority 2010, dated 2014)
Counter-ions that a name gives are not always drawn.

Target: T1, AMPA receptor (human GluR1 flip/stargazin expressed in CHO-K1 cells) (Homo sapiens, UniProt P42261)
T1 construct: expressed in transfected cells; host or cells: CHO-K1
Assay: AMPA receptor function enhancing activity using calcium influx as index
Type: cell-based
Conditions: 100% = 3 mM glutamic acid + 300 μM cyclothiazide, 0% = 3 mM glutamic acid only
How it was run: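 CHO-K1 clone stably co-expressing human GluR1 flip and stargazin, loaded with Calcium 4 dye plus probenecid. Compound at 30 μM was added with glutamate (3 mM final) and fluorescence change followed over 3 min. Activity is expressed as % of the 3 mM glutamate plus 300 μM cyclothiazide response, with glutamate alone as 0%.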

[1] = test compound 30 μM with glutamic acid final 3 mM, change in fluorescence in 3 min
[2] = test compound 30 μM with 3 mM glutamic acid, change in fluorescence level in 3 min

T1 sequence (P42261 19-906 isoform P42261-2 limits assumed): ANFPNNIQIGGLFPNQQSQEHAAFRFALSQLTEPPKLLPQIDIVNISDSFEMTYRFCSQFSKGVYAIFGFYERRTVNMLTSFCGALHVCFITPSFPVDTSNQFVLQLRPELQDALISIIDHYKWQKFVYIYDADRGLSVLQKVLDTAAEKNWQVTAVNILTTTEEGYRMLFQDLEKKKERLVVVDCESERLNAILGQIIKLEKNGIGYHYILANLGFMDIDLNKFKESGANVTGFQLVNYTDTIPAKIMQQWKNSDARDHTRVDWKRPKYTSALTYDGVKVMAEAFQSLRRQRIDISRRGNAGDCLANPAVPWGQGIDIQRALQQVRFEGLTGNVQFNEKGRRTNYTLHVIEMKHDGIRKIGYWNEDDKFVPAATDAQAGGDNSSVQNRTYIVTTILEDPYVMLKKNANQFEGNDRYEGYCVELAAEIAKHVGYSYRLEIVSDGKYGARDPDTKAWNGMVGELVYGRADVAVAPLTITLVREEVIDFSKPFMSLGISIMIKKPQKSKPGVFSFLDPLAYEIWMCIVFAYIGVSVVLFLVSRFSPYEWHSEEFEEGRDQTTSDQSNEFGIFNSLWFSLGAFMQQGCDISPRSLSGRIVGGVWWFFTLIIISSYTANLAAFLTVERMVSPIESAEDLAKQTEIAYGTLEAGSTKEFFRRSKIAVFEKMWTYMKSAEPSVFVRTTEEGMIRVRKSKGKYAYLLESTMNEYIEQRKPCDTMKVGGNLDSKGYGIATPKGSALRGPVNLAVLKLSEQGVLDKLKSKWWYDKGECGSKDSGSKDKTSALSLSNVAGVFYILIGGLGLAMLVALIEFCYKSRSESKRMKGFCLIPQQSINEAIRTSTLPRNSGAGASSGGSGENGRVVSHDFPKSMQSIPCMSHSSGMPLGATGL
T1 sequence (Q9Y698 whole entry partner): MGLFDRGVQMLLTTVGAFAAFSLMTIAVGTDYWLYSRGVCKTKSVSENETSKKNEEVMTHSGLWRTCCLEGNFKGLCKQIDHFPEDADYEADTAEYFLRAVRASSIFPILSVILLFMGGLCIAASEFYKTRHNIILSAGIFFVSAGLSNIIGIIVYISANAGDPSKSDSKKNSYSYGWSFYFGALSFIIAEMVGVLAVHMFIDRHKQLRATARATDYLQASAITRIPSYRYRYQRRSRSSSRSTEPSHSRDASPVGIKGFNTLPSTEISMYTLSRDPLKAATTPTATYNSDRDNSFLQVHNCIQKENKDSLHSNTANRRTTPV

Row | Compound | activity (%) [1] [%] | activity (%) [2] [%]
1 | O=S1(=O)CCN2CCC[C@@H](c3ccc(-c4ccccc4Cl)cc3)C2=N1 [Example 220, (9S)-9-(2′-chlorobiphenyl-4-yl)-3,4,6,7,8,9-hexahydropyrido[2,1-c][1,2,4]thiadiazine 2,2-dioxide] |  | 93
2 | CC(C)c1ccc(C(=O)NC2=CC=CN3CCS(=O)(=O)N=C23)cc1 [Example 37, N-(2,2-dioxido-3,4-dihydropyrido[2,1-c][1,2,4]thiadiazin-9-yl)-4-(1-methylethyl)benzamide] | 95 | 
3 | Cc1cc(C(F)(F)F)ccc1Oc1ccc(C2=CC=CN3CCS(=O)(=O)N=C23)cc1 [Example 121, 9-{4-[2-methyl-4-(trifluoromethyl)phenoxy]phenyl}-3,4-dihydropyrido[2,1-c][1,2,4]thiadiazine 2,2-dioxide] | 71 | 
4 | Cc1cc(Oc2ccc(C3=CC=CN4CCS(=O)(=O)N=C34)cc2)ccc1F [Example 111, 9-[4-(4-fluoro-3-methylphenoxy)phenyl]-3,4-dihydropyrido[2,1-c][1,2,4]thiadiazine 2,2-dioxide] | 58 | 
5 | O=S1(=O)CCN2CCCC(c3ccc(-c4ccccc4)c(F)c3)C2=N1 (stereo not drawn) [Example 96, 9-(2-fluorobiphenyl-4-yl)-3,4,6,7,8,9-hexahydropyrido[2,1-c][1,2,4]thiadiazine 2,2-dioxide] | 74 | 
6 | O=S1(=O)CCN2C=CC=C(c3ccc(-n4cccn4)cc3)C2=N1 [Example 239, 9-[4-(1H-pyrazol-1-yl)phenyl]-3,4-dihydropyrido[2,1-c][1,2,4]thiadiazine 2,2-dioxide] |  | 88
7 | Cc1cc(C2=CC=CN3CCS(=O)(=O)N=C23)ccc1-c1ccccc1 [Example 101, 9-(2-methylbiphenyl-4-yl)-3,4-dihydropyrido[2,1-c][1,2,4]thiadiazine 2,2-dioxide] | 84 | 
8 | O=S1(=O)CCN2C=CN=C(c3ccc(OC4CCCCC4)nc3)C2=N1 [Example 94, 9-[6-(cyclohexyloxy)pyridin-3-yl]-3,4-dihydropyrazino[2,1-c][1,2,4]thiadiazine 2,2-dioxide] | 71 | 
9 | O=S1(=O)CCN2CCCC(c3ccc(OCc4cccc(F)c4)cc3)C2=N1 (stereo not drawn) [Example 83, 9-{4-[(3-fluorobenzyl)oxy]phenyl}-3,4,6,7,8,9-hexahydropyrido[2,1-c][1,2,4]thiadiazine 2,2-dioxide] | 57 | 
10 | Cc1ccc(C(F)(F)c2ccc(C3=CC=CN4CCS(=O)(=O)N=C34)cc2)cc1 [Example 136, 9-{4-[difluoro(4-methylphenyl)methyl]phenyl}-3,4-dihydropyrido[2,1-c][1,2,4]thiadiazine 2,2-dioxide] | 77 | 
11 | COc1ccc2cc(C3CCCN4CCS(=O)(=O)N=C34)ccc2c1 (stereo not drawn) [Example 128, 9-(6-methoxynaphthalen-2-yl)-3,4,6,7,8,9-hexahydropyrido[2,1-c][1,2,4]thiadiazine 2,2-dioxide] | 98 | 
12 | O=S1(=O)CCN2CCC[C@@H](c3ccc(-c4ccc(F)c(Cl)c4)cc3)C2=N1 [Example 226, (9S)-9-(3′-chloro-4′-fluorobiphenyl-4-yl)-3,4,6,7,8,9-hexahydropyrido[2,1-c][1,2,4]thiadiazine 2,2-dioxide] |  | 79
13 | CCc1ccc(Oc2ccc(C3CCCN4CCS(=O)(=O)N=C34)cc2)cc1 (stereo not drawn) [Example 161, 9-[4-(4-ethylphenoxy)phenyl]-3,4,6,7,8,9-hexahydropyrido[2,1-c][1,2,4]thiadiazine 2,2-dioxide] |  | 57
14 | Cc1ccccc1Oc1ccc(C2=CC=CN3CCS(=O)(=O)N=C23)cc1 [Example 115, 9-[4-(2-methylphenoxy)phenyl]-3,4-dihydropyrido[2,1-c][1,2,4]thiadiazine 2,2-dioxide] | 80 | 
15 | Cc1cc(F)ccc1Oc1ccc(C2CCCN3CCS(=O)(=O)N=C23)cc1 (stereo not drawn) [Example 145, 9-[4-(4-fluoro-2-methylphenoxy)phenyl]-3,4,6,7,8,9-hexahydropyrido[2,1-c][1,2,4]thiadiazine 2,2-dioxide] |  | 84
16 | Cc1cccc(Oc2ccc(C3=CC=CN4CCS(=O)(=O)N=C34)cc2)n1 [Example 246, 9-{4-[(6-methylpyridin-2-yl)oxy]phenyl}-3,4-dihydropyrido[2,1-c][1,2,4]thiadiazine 2,2-dioxide] |  | 73
17 | Cc1cccc(Oc2ccc(C3CCCN4CCS(=O)(=O)N=C34)cc2)c1 (stereo not drawn) [Example 118, 9-[4-(3-methylphenoxy)phenyl]-3,4,6,7,8,9-hexahydropyrido[2,1-c][1,2,4]thiadiazine 2,2-dioxide] | 79 | 
18 | O=S1(=O)CCN2CCCC(c3ccc(-c4ccccc4Cl)cc3)C2=N1 (stereo not drawn) [Example 221, 9-(2′-chlorobiphenyl-4-yl)-3,4,6,7,8,9-hexahydropyrido[2,1-c][1,2,4]thiadiazine 2,2-dioxide] |  | 96
19 | CC(F)(F)c1cccc(Oc2ccc(C3=CC=CN4CCS(=O)(=O)N=C34)cc2)c1 [Example 156, 9-{4-[3-(1,1-difluoroethyl)phenoxy]phenyl}-3,4-dihydropyrido[2,1-c][1,2,4]thiadiazine 2,2-dioxide] |  | 90
20 | Cc1ccc(C(F)(F)c2ccc(C3CCCN4CCS(=O)(=O)N=C34)cc2)cc1 (stereo not drawn) [Example 138, 9-{4-[difluoro(4-methylphenyl)methyl]phenyl}-3,4,6,7,8,9-hexahydropyrido[2,1-c][1,2,4]thiadiazine 2,2-dioxide] | 71 | 

Second part, the molecule after the results:

Row | activity (%) [1] [%] | activity (%) [2] [%] | Compound
21 | 89 |  | COc1cccc(C(=O)c2ccc(C3=CC=CN4CCS(=O)(=O)N=C34)cc2)c1 [Example 306, [4-(2,2-dioxido-3,4-dihydropyrido[2,1-c][1,2,4]thiadiazin-9-yl)phenyl](3-methoxyphenyl)methanone]
22 | 83 |  | CC(=O)c1ccc(C2=CC=CN3CCS(=O)(=O)N=C23)cc1 [Example 400, 1-[4-(2,2-dioxido-3,4-dihydropyrido[2,1-c][1,2,4]thiadiazin-9-yl)phenyl]ethanone]
23 |  | 73 | CC1(C)Cc2cc(C3=CC=CN4CCS(=O)(=O)N=C34)ccc2C1=O [Example 287, 5-(2,2-dioxido-3,4-dihydropyrido[2,1-c][1,2,4]thiadiazin-9-yl)-2,2-dimethyl-2,3-dihydro-1H-inden-1-one]
24 | 83 |  | CCCOc1ccc(C2=CC=CN3CCS(=O)(=O)N=C23)cc1F [Example 349, 9-(3-fluoro-4-propoxyphenyl)-3,4-dihydropyrido[2,1-c][1,2,4]thiadiazine 2,2-dioxide]
25 | 64 |  | [2H]C1(c2ccc(-c3ccccc3)c(F)c2)NCCN2CCS(=O)(=O)N=C21 (stereo not drawn) [Example 348, 9-(2-fluorobiphenyl-4-yl)(9-^2H)-3,4,6,7,8,9-hexahydropyrazino[2,1-c][1,2,4]thiadiazine 2,2-dioxide Hydrochloride]
26 |  | 80 | O=S1(=O)CCN2C=CC=C(c3ccc(OCC(F)(F)F)cc3)C2=N1 [Example 264, 9-[4-(2,2,2-trifluoroethoxy)phenyl]-3,4-dihydropyrido[2,1-c][1,2,4]thiadiazine 2,2-dioxide]
27 | 76 |  | O=S1(=O)CCN2CCCC(c3ccc(Oc4ccccc4)c(F)c3)C2=N1 (stereo not drawn) [Example 347, 9-(3-fluoro-4-phenoxyphenyl)-3,4,6,7,8,9-hexahydropyrido[2,1-c][1,2,4]thiadiazine 2,2-dioxide]
28 | 82 |  | Cc1ccc(C(C)(C)c2ccc(C3=CC=CN4CCS(=O)(=O)N=C34)cc2)cc1 [Example 329, 9-{4-[1-methyl-1-(4-methylphenyl)ethyl]phenyl}-3,4-dihydropyrido[2,1-c][1,2,4]thiadiazine 2,2-dioxide]
29 | 85 |  | CSc1ccc(C2=CC=CN3CCS(=O)(=O)N=C23)cc1 [Example 408, 9-[4-(methylsulfanyl)phenyl]-3,4-dihydropyrido[2,1-c][1,2,4]thiadiazine 2,2-dioxide]
30 |  | 81 | O=S1(=O)CCN2C=C(Cl)C=C(c3ccc(OCC4CCCO4)cc3)C2=N1 (stereo not drawn) [Example 251, 7-chloro-9-[4-(tetrahydrofuran-2-ylmethoxy)phenyl]-3,4-dihydropyrido[2,1-c][1,2,4]thiadiazine 2,2-dioxide]
31 | 87 |  | O=C(c1ccccc1)c1ccc(C2CCCN3CCS(=O)(=O)N=C23)cc1 (stereo not drawn) [Example 304, [4-(2,2-dioxido-3,4,6,7,8,9-hexahydropyrido[2,1-c][1,2,4]thiadiazin-9-yl)phenyl](phenyl)methanone]
32 |  | 80 | O=S1(=O)CCN2C=C(Cl)C=C(c3ccc(OCC4CCOCC4)cc3)C2=N1 [Example 253, 7-chloro-9-[4-(tetrahydro-2H-pyran-4-ylmethoxy)phenyl]-3,4-dihydropyrido[2,1-c][1,2,4]thiadiazine 2,2-dioxide]
33 | 74 |  | O=S1(=O)CCN2C=CN=C(c3ccc(-c4ccccc4)c(F)c3)C2=N1 [Example 344, 9-(2-fluorobiphenyl-4-yl)-3,4-dihydropyrazino[2,1-c][1,2,4]thiadiazine 2,2-dioxide]
34 |  | 84 | O=S1(=O)CCN2C=CC=C(c3ccc(-c4ccccc4)nc3)C2=N1 [Example 282, 9-(6-phenylpyridin-3-yl)-3,4-dihydropyrido[2,1-c][1,2,4]thiadiazine 2,2-dioxide]
35 |  | 81 | O=S1(=O)CCN2C=CC=C(c3ccc(Oc4ccc(C(F)(F)F)nc4)cc3)C2=N1 [Example 254, 9-(4-{[6-(trifluoromethyl)pyridin-3-yl]oxy}phenyl)-3,4-dihydropyrido[2,1-c][1,2,4]thiadiazine 2,2-dioxide]
36 | 91 |  | Cn1ccc2cc(C3=CC=CN4CCS(=O)(=O)N=C34)ccc21 [Example 412, 9-(1-methyl-1H-indol-5-yl)-3,4-dihydropyrido[2,1-c][1,2,4]thiadiazine 2,2-dioxide]
